These are literature values, as cited in patent publication US6543389B2, “Insecticidal pet collar” (Pfizer Inc., priority 2001, dated 2003).

In data set [1] the test system is ticks. The settings on record: as compared with fipronil.
The subject of data set [2] is ticks. Particulars: collars as currently marketed, extruded matrix containing about 9% by weight of amitraz.
The next data set relates to alpha-2 adrenoceptor. The settings on record: affected dogs, injected intramuscularly.

On to `Cc1ccc(N=CN(C)C=Nc2ccc(C)cc2C)c(C)c1` [Amitraz, 1,5-di-(2,4-dimethylphenyl)-3-methyl-1,3,5-triazapenta-1,4-diene], for which the “effect on numbers of live feeding ticks, egg hatchability, and larval viability” value with ticks [1] is listed as “significantly greater effect”. Further, the “duration of tick protection” value in the data set on ticks [2] was “about four”.
Turning to `CCC1(c2c[nH]cn2)Cc2ccccc2C1` [atipamezole, 4-(2-ethyl-2,3-dihydro-1H-inden-2-yl)-1H-imidazole], the “reversing effects of amitraz toxicosis” value in the data set on alpha-2 adrenoceptor is recorded as “effective in reversing effects of amitraz toxicosis”.
